Numbers after ± are expanded uncertainties.
Assay: activity coefficient (dimensionless); of the first substance listed, at infinite dilution; xn = mol fraction of the nth substance listed
Details: 101 kPa, Liquid, Chromatography, x1 = 0

SMILES | activity coefficient (358.15 K) | activity coefficient (368.15 K) | activity coefficient (378.15 K) | activity coefficient (388.15 K) | activity coefficient (398.15 K) | activity coefficient (408.15 K) | activity coefficient (418.15 K) | activity coefficient (428.15 K)
C#CCCCCCC [1-octyne] + CCCCn1cc[n+](C)c1.[Cl-] | 18.3 ± 1.2 | 19.2 ± 1.3 | 19.7 ± 1.4 | 20.4 ± 1.4 | – | – | – | –
C1CCCCCC1 [cycloheptane] + CCCCn1cc[n+](C)c1.CS(=O)(=O)[O-] | 44.2 ± 3 | 43.3 ± 3 | 42.6 ± 2.9 | 42.2 ± 2.9 | – | – | – | –
c1ccccc1 [benzene] + CCCCn1cc[n+](C)c1.CS(=O)(=O)[O-] | 3.08 ± 0.21 | 3.19 ± 0.22 | 3.29 ± 0.22 | 3.46 ± 0.24 | – | – | – | –
CCCOCCC [dipropyl ether] + CCCCn1cc[n+](C)c1.CS(=O)(=O)[O-] | 38.1 ± 2.6 | 38.7 ± 2.6 | 38.9 ± 2.7 | 39.4 ± 2.7 | – | – | – | –
CCOC(C)=O [ethyl acetate] + CCCCn1cc[n+](C)c1.CS(=O)(=O)[O-] | 4.76 ± 0.32 | 4.88 ± 0.33 | 5 ± 0.34 | 5.28 ± 0.36 | – | – | – | –
CC(C)OC(C)C [diisopropyl ether] + CCCCn1cc[n+](C)c1.[Cl-] | 78.5 ± 5.4 | 71.7 ± 4.9 | 64 ± 4.4 | 59.1 ± 4 | – | – | – | –
C1CCCC1 [cyclopentane] + CCCCn1cc[n+](C)c1.CS(=O)(=O)[O-] | 23.9 ± 1.6 | 23.7 ± 1.6 | 23.5 ± 1.6 | 23.3 ± 1.6 | – | – | – | –
CCCCCCCC [octane] + CCCCn1cc[n+](C)c1.[Cl-] | 331 ± 23 | 302 ± 21 | 268 ± 18 | 258 ± 18 | – | – | – | –
CC(C)OC(C)C [diisopropyl ether] + CCCCn1cc[n+](C)c1.COP(=O)([O-])OC | 14.4 ± 0.98 | 14.3 ± 0.97 | 14.2 ± 0.97 | 14.1 ± 0.96 | – | – | – | –
CCC(=O)OC [methyl propanoate] + CCCCn1cc[n+](C)c1.[Cl-] | 8 ± 0.55 | 8.09 ± 0.55 | 8.2 ± 0.56 | 8.31 ± 0.57 | – | – | – | –
CC1CCCCC1 [methylcyclohexane] + CCCCn1cc[n+](C)c1.COP(=O)([O-])OC | 17.4 ± 1.2 | 16.8 ± 1.1 | 16.4 ± 1.1 | 16.1 ± 1.1 | – | – | – | –
C1CCCCC1 [cyclohexane] + CCCCn1cc[n+](C)c1.COP(=O)([O-])OC | 12.3 ± 0.84 | 11.9 ± 0.81 | 11.6 ± 0.79 | 11.4 ± 0.78 | – | – | – | –
CO [methanol] + CCCCn1cc[n+](C)c1.[Cl-] | – | – | – | – | 0.156 ± 0.029 | 0.166 ± 0.029 | 0.176 ± 0.029 | 0.191 ± 0.029
C=CCCCCCCCC [1-decene] + CCCCn1cc[n+](C)c1.COP(=O)([O-])OC | 53.5 ± 3.7 | 52.2 ± 3.6 | 50.4 ± 3.5 | 49.2 ± 3.4 | – | – | – | –
C=Cc1ccccc1 [styrene] + CCCCn1cc[n+](C)c1.COP(=O)([O-])OC | 2.79 ± 0.19 | 2.93 ± 0.2 | 3.06 ± 0.21 | 3.26 ± 0.22 | – | – | – | –
CCCCCCCCC [nonane] + CCCCn1cc[n+](C)c1.COP(=O)([O-])OC | 67.9 ± 4.7 | 64 ± 4.4 | 61.5 ± 4.2 | 59.1 ± 4 | – | – | – | –
CC(C)(C)O [2-methylpropan-2-ol] + CCCCn1cc[n+](C)c1.COP(=O)([O-])OC | – | – | – | – | 0.419 ± 0.035 | 0.471 ± 0.037 | 0.527 ± 0.039 | 0.592 ± 0.042
Cc1ccccc1 [toluene] + CCCCn1cc[n+](C)c1.[Cl-] | 7.78 ± 0.53 | 7.91 ± 0.54 | 8.09 ± 0.55 | 8.36 ± 0.57 | – | – | – | –
C#CCCCC [1-hexyne] + CCCCn1cc[n+](C)c1.COP(=O)([O-])OC | 3.01 ± 0.2 | 3.22 ± 0.22 | 3.39 ± 0.23 | 3.57 ± 0.24 | – | – | – | –
c1ccsc1 [thiophene] + CCCCn1cc[n+](C)c1.CS(=O)(=O)[O-] | 1.72 ± 0.12 | 1.81 ± 0.12 | 1.94 ± 0.13 | 2.05 ± 0.14 | – | – | – | –
C1CCOC1 [tetrahydrofuran] + CCCCn1cc[n+](C)c1.COP(=O)([O-])OC | 2.79 ± 0.19 | 2.84 ± 0.19 | 2.89 ± 0.2 | 3.02 ± 0.21 | – | – | – | –
CCCO [propan-1-ol] + CCCCn1cc[n+](C)c1.CS(=O)(=O)[O-] | – | – | – | – | 0.711 ± 0.047 | 0.744 ± 0.049 | 0.783 ± 0.051 | 0.823 ± 0.053
C1COCCO1 [1,4-dioxane] + CCCCn1cc[n+](C)c1.[Cl-] | 3.47 ± 0.24 | 3.55 ± 0.24 | 3.65 ± 0.25 | 3.74 ± 0.25 | – | – | – | –

Source: the NIST ThermoML archive (doi:10.1016/j.jct.2015.07.042)
